# Data reported in patent publication US9181305B2, “Exendin-4 peptide analogues” (SANOFI, priority 2012, dated 2015).
# *1 amine or outer side, *2 acyl side, *3 side chain or, on linkers, in order; H or OH if unused. Where a SMILES comes first, the peptide text is derived from it. Side-chain parts run from the residue outwards. [ ]: non-standard residue; d: D form. The star is where a group is joined. γGlu = O=C(O)[C@H](CCC(=O)[*:2])N[*:1]; Palmitoyl = CCCCCCCCCCCCCCCC(=O)*
# Assays:
# [1] = physchem; format: physicochemical
# Protocol: Prior to the testing of solubility and stability of a peptide batch, its content was determined. Therefore, two parameters were investigated, its purity (HPLC-UV) and the amount of salt load of the batch (ion chromatography). Since synthesized peptides contain primarily trifluoracetate anions, only anion chromatography was performed. The content was then calculated based on the assumption that peptide-related impurities are detected at the same UV-absorption rate as the target peptide, as well as that cations are not present in the sample.
# Therefore, solutions from solid samples were prepared in different buffer systems with a concentration of 1.0 mg/mL compound based on the previously determined content. HPLC-UV was performed after 2 h of gentle agitation from the supernatant, which was obtained by 20 min of centrifugation at 4000 rpm. […] This analysis also served as t0 for the stability testing.
# Instrument: Agilent 1100, column: X-Bridge C18 3.5 μm 2.1×150 mm (Waters), eluent: A: H20+500 ppm TFA/B: Methanol, flow: 0.55 ml/min, gradient: 0-5 min: 10-60% B; 5-15 min: 60-99% B; detection: 214 nm.
# [2] = system: female diet-induced obese C57BL/6NCrl mice; experiment: Single subcutaneous treatment, blood glucose in diet-induced obese mice; format: in vivo; conditions: single s.c. 100 μg/kg, fed DIO mice (9 months on high-fat diet)
# Protocol: Female C57BL/6NCrl mice were housed in groups (n=8) and had ad-libitum access to high-fat diet and water. Initial blood samples were taken just before administration (s.c.) of vehicle (phosphate buffer solution) or the exendin-4 analogue (e.g. SEQ ID NO: (7)) (100 μg/kg in phosphate buffer) in fed DIO mice. The volume of administration was 5 mL/kg. The animals had access to high-fat diet and water during the experiment, food consumption was determined at all time points for blood sampling. Blood glucose levels were measured at t=0.5 h, t=1 h, t=2 h, t=4 h, t=6 h, t=8 h, and t=24 h. Blood sampling was performed by tail incision without anaesthesia. Statistical analyses were performed with Everstat 6.0 by repeated measures two-way ANOVA and Dunnetts post-hoc analyses. Differences were considered statistically significant at the p<0.05 level.
# [3] = system: female NMRI-mice; experiment: Gastric emptying and intestinal passage in mice; format: in vivo; conditions: 0.02 mg/kg s.c., 30 min prior to coloured bolus; p<0.0001
# Protocol: Female NMRI-mice of a body weight between 20 and 30 g were used. Mice were adapted to housing conditions for at least one week. Mice were overnight fasted, while water remained available all the time. On the study day, mice were weighed, single-caged and allowed access to 500 mg of feed for 30 min, while water was removed. At the end of the 30 min feeding period, remaining feed was removed and weighed. 60 min later, a coloured, non-caloric bolus was instilled via gavage into the stomach. The test product or its vehicle in the control group was administered subcutaneously, to reach Cmax when coloured bolus was administered. After another 30 min, the animals were sacrificed and the stomach and the small intestine prepared. The filled stomach was weighed, emptied, carefully cleaned and dried and reweighed. The calculated stomach content indicated the degree of gastric emptying. The small intestine was straightened without force and measured in length. Then the distance from the gastric beginning of the gut to the tip of the farthest travelled intestinal content bolus was measured. The intestinal passage was given as relation in percent of the latter distance and the total length of the small intestine. Statistical analyses were performed with Everstat 6.0 by Student's T-Test. Differences were considered statistically significant at the p<0.05 level. […]
# [4] = system: female NMRI-mice; experiment: Automated assessment of feed intake in mice (22 hours); format: in vivo
# Protocol: Female NMRI-mice of a body weight between 20 and 30 g were used. Mice were adapted to housing conditions for at least one week and for at least one day single-caged in the assessment equipment, when basal data were recorded simultaneously. On the study day, test product was administered subcutaneously close to the lights-off phase (12 h lights off) and assessment of feed consumption was directly started afterwards. Assessment included continued monitoring (every 30 min) over 22 hours. Repetition of this procedure over several days was possible. Restriction of assessment to 22 hours was for practical reason to allow for reweighing of animals, refilling of feed and water and drug administration between procedures. Results could be assessed as cumulated data over 22 hours or differentiated to 30 min intervals. Statistical analyses were performed with Everstat 6.0 by two-way ANOVA on repeated measures and Dunnetts post-hoc analyses. Differences were considered statistically significant at the p<0.05 level. Fed female NMRI-mice, weighing on average 27 g, were administered 0.01 or 0.1 mg/kg of SEQ ID NO: (7) or phosphate buffered saline (vehicle control) subcutaneously, directly prior to start of feeding monitoring. Lights-off phase (dark phase) started 4 hours later.
# [5] = target: T1, human GLP-1 receptor (hGLP-1 R) (Homo sapiens, UniProt P43220); experiment: cAMP response (HTRF) of HEK-293 cells stably expressing human GLP-1 receptor; format: cell-based; conditions: HEK-293 cells expressing human GLP-1 receptor, cAMP formation
# T1 construct: expressed in transfected cells; host or cells: HEK-293
# T1 sequence (P43220 24-463): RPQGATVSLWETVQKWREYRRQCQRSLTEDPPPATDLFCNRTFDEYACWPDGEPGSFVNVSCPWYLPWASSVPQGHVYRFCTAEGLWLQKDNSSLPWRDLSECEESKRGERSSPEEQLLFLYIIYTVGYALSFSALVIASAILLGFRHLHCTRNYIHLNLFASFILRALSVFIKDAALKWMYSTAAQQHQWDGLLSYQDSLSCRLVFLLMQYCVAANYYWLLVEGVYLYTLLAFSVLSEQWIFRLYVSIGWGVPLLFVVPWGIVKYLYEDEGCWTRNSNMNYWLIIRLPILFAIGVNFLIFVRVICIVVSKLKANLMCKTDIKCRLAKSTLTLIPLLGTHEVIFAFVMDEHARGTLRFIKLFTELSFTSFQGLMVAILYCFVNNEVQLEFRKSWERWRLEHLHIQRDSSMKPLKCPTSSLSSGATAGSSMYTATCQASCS
# Procedure, shortened: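 Detached HEK-293 cells stably expressing the receptor were suspended in HBSS with 20 mM HEPES, 0.1% BSA and 2 mM IBMX. Test compound was added for 30 min at room temperature, and cellular cAMP was quantified by HTRF.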
# [6] = target: T2, human glucagon receptor (hGlucagon R) (Homo sapiens, UniProt P47871); experiment: cAMP response (HTRF) of HEK-293 cells stably expressing human glucagon receptor; format: cell-based; conditions: read-out: EC50 hGlucagonR
# T2 construct: expressed in transfected cells; host or cells: HEK-293
# T2 sequence (P47871 26-477): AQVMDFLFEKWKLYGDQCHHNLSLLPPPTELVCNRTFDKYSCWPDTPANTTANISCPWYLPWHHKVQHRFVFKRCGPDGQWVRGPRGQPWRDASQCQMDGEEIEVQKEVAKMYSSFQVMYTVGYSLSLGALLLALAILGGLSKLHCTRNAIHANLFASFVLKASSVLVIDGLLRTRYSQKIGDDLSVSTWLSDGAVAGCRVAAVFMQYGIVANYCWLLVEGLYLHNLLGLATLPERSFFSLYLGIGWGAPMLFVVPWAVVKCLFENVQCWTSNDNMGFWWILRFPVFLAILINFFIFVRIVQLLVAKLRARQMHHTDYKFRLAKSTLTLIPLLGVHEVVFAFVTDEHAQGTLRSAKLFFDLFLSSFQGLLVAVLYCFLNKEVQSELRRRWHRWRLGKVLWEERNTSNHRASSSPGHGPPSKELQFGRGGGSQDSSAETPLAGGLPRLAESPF
# Protocol: cAMP content of cells was determined using a kit from Cisbio Corp. (cat. no. 62AM4PEC) based on HTRF (Homogenous Time Resolved Fluorescence). For preparation, cells were split into T175 culture flasks and grown overnight to near confluency in medium (DMEM/10% FBS). Medium was then removed and cells washed with PBS lacking calcium and magnesium, followed by proteinase treatment with accutase (Sigma-Aldrich cat. no. A6964). Detached cells were washed and resuspended in assay buffer (1×HBSS; 20 mM HEPES, 0.1% BSA, 2 mM IBMX) and cellular density determined. […] For measurement, 25 μl of test compound in assay buffer was added to the wells, followed by incubation for 30 minutes at room temperature.
compound,measurement,setting,value
CCCCCCCCCCCCCCCC(=O)N[C@@H](CCC(=O)NCCCC[C@H](NC(=O)[C@H](CO)NC(=O)[C@@H]1CCCN1C(=O)[C@@H]1CCCN1C(=O)[C@@H]1CCCN1C(=O)[C@H](C)NC(=O)CNC(=O)[C@H](CO)NC(=O)[C@H](CO)NC(=O)[C@@H]1CCCN1C(=O)CNC(=O)CNC(=O)[C@H](CC(N)=O)NC(=O)[C@H](CCCCN)NC(=O)[C@H](CC(C)C)NC(=O)[C@H](Cc1c[nH]c2ccccc12)NC(=O)[C@H](CCC(=O)O)NC(=O)[C@@H](NC(=O)[C@H](Cc1ccccc1)NC(=O)[C@H](CC(=O)O)NC(=O)[C@H](CCC(N)=O)NC(=O)[C@H](C)NC(=O)[C@H](CCCNC(=N)N)NC(=O)[C@H](CCCNC(=N)N)NC(=O)[C@H](CO)NC(=O)[C@H](CC(=O)O)NC(=O)[C@H](CCSC)NC(=O)[C@H](CCC(N)=O)NC(=O)[C@H](CCCCN)NC(=O)[C@H](CO)NC(=O)[C@H](CC(C)C)NC(=O)[C@H](CC(=O)O)NC(=O)[C@H](CO)NC(=O)[C@@H](NC(=O)[C@H](Cc1ccccc1)NC(=O)[C@@H](NC(=O)CNC(=O)[C@H](CCC(N)=O)NC(=O)[C@@H](CO)NC(=O)[C@@H](N)Cc1c[nH]cn1)[C@@H](C)O)[C@@H](C)O)[C@@H](C)CC)C(N)=O)C(=O)O [(7)],solubility at 2 h,[1]; pH 4.5,> 1000 µg/mL
same,solubility at 2 h,[1]; pH 7.4,> 1000 µg/mL
same,blood glucose over 24 h compared to vehicle-treated control animals,[2],significantly decreased
same,reduction of intestinal passage,[3],54%
same,reduction of feed intake at the end of the study (22 hours),"[4]; 0.01 mg/kg s.c., p=0.0027",17%
same,reduction of feed intake at the end of the study (22 hours),"[4]; 0.1 mg/kg s.c., p<0.0001",37%
same,EC50,[5],5.2 pM
CCCCCCCCCCCCCCCC(=O)N[C@@H](CCC(=O)NCCCC[C@H](NC(=O)[C@H](CO)NC(=O)[C@@H]1CCCN1C(=O)[C@@H]1CCCN1C(=O)[C@@H]1CCCN1C(=O)[C@H](C)NC(=O)CNC(=O)[C@H](CO)NC(=O)[C@H](CO)NC(=O)[C@@H]1CCCN1C(=O)CNC(=O)CNC(=O)[C@H](C)NC(=O)[C@H](CCCCN)NC(=O)[C@H](CC(C)C)NC(=O)[C@H](Cc1c[nH]c2ccccc12)NC(=O)[C@H](CCC(=O)O)NC(=O)[C@@H](NC(=O)[C@H](Cc1ccccc1)NC(=O)[C@H](CC(C)C)NC(=O)[C@H](CCC(N)=O)NC(=O)[C@H](C)NC(=O)[C@H](C)NC(=O)[C@H](CCCNC(=N)N)NC(=O)[C@H](CO)NC(=O)[C@H](CCC(=O)O)NC(=O)[C@H](CCSC)NC(=O)[C@H](CCC(N)=O)NC(=O)[C@H](CCCCN)NC(=O)[C@H](CO)NC(=O)[C@H](CC(C)C)NC(=O)[C@H](CC(=O)O)NC(=O)[C@H](CO)NC(=O)[C@@H](NC(=O)[C@H](Cc1ccccc1)NC(=O)[C@@H](NC(=O)CNC(=O)[C@H](CCC(N)=O)NC(=O)[C@@H](CO)NC(=O)[C@@H](N)Cc1c[nH]cn1)[C@@H](C)O)[C@@H](C)O)[C@@H](C)CC)C(N)=O)C(=O)O [(79)] (H-H[dS]QGTFTSDLSKQMESRAAQLFIEWLKAGGPSSGAPPPSK([γGlu-Palmitoyl])-NH2),solubility at 2 h,[1]; pH 4.5,> 1000 µg/mL
same,solubility at 2 h,[1]; pH 7.4,666 µg/mL
same,EC50,[5],3.7 pM
same,EC50,[6],0.195 nM
